Patent publication US20090318413A1, “BRONCHIAL SMOOTH MUSCLE REMODELING INVOLVES CALCIUM-DEPENDENT ENHANCED MITOCHONDRIAL BIOGENESIS IN ASTHMA” (UNIVERSITE VICTOR SEGALEN BORDEAUX 2, priority 2008, published 2009)
Like-named read-outs stand apart in the source and are kept apart here.

How the values were obtained:
[1] = system: porin; test: Mitochondrial mass by porin content (Western blot) in BSM cells; type: cell-based, human
Experimental: (§1) To analyze the mitochondrial ultrastructure, BSM cells were growth arrested, as described in the previous section, for 6 d. Three million cells were then collected and centrifuged at 400 g for 5 min. Cell pellets were fixed in 2.5% glutaraldehyde for 2 h at 4° C. and processed for electron microscopy, as described in the previous section. Growth curves were built to assess the role of mitochondria in cell proliferation. For this purpose, 25,000 BSM cells were plated on 75-cm^2 flasks and cultured with 10% FCS-DME containing either 4.5 g/liter galactose or 4.5 g/liter glucose. In another set of experiments, we investigated the effects of 50 μg/liter ethidium bromide (Qbiogene) for up to 33 d, 1.3 g/liter cyclic cGMP (3 mM; Sigma-Aldrich) for up to 6 d, or 0.5 g/liter D600, i.e., methoxyverapamil or gallopamil (1 μM; Sigma-Aldrich) for up to 2 d in 10% FCS-DME containing 4.5 g/liter glucose. For these latter experiments, medium was changed every 24 h, and, at the indicated time, BSM cells were harvested by trypsinization and counted in triplicate using a cytometer.
Whole lysates from BSM cells were collected using 1% Triton X-100 lysis buffer in the presence of 2 mM Na orthovanadate, 1 mM EDTA, 50 μg/ml aprotinin, 100 μM leupeptin, 1 mM 1.4 Dithio-DL-Treitol, and 1 mM amino-ethyl-benzenesulfonyl fluoride hydrochloride (all from Sigma-Aldrich). Cellular extracts were reduced with mercaptoethanol, subjected to electrophoresis on a 10% acrylamide reducing gel, and transferred to PVDF membranes (Immobilon TM-P; Millipore). The immunoblots were then developed using mouse anti-human porin (MitoSciences), mouse anti-human α-actin (Sigma-Aldrich), rabbit anti-human phospho-CaMK-IV, rabbit anti-human PGC-1α, rabbit anti-human NRF-1, or rabbit anti-human mitochondrial transcription factor A (mtTFA; all purchased from Santa Cruz Biotechnology, Inc.) for 14 h at 4° C. For amplification, biotinylated goat secondary antibody anti-mouse IgG (Bio-Rad Laboratories) or anti-rabbit IgG (Santa Cruz Biotechnology, Inc.) for 2 h at room temperature and a streptavidin-biotinylated horseradish peroxidase complex (Dako) were used. […] Blot images were acquired using BioCaptMW (Thermo Fisher Scientific), and band densities were quantified using ImageJ software.

[2] = system: BSM cells; test: BrdU incorporation (DNA synthesis) in BSM cells; type: cell-based, human; conditions: 10% FCS-DME glucose, ethidium bromide or cyclic GMP 24 h
Experimental: Growth-arrested BSM cells were cultured in 96-well plates for 24 h and stimulated with 10% FCS-DME containing glucose, galactose, ethidium bromide, or cyclic GMP for 24 h or containing D600 for 48 h, as described above. Control BSM cells remained in serum-deprived DME. DNA synthesis was measured using the BrdU kit according to the manufacturer's instructions (Roche). In brief, BSM cells were incubated with 10 μM BrdU for 2 h at 37° C. and fixed for 20 min at room temperature. Cells were denaturized for 30 min and incubated with the anti-BrdU antibody for 2 h at room temperature. Absorbance was measured at 370 nm in a microplate reader in triplicate. Results are expressed as a normalized ratio of BrdU incorporation, i.e. absorbance for test condition divided by absorbance for control serum-deprived condition.

[3] = system: CaMK-IV; test: Western blot of phosphorylated CaMK-IV in BSM cells; type: cell-based, human; conditions: asthmatic BSM cells; 1 μM D600
Experimental: as §1, with “In another set of experiments, we investigated the effects of 50 μg/liter ethidium bromide (Qbiogene) for up to 33 d, 1.3 g/liter cyclic cGMP (3 mM; Sigma-Aldrich) for up to 6 d, or 0.5 g/liter D600, i.e., methoxyverapamil or gallopamil (1 μM; Sigma-Aldrich) for up to 2 d in 10% FCS-DME containing 4.5 g/liter glucose.” left out
(§2) Whole lysates from BSM cells were collected using 1% Triton X-100 lysis buffer in the presence of 2 mM Na orthovanadate, 1 mM EDTA, 50 μg/ml aprotinin, 100 μM leupeptin, 1 mM 1.4 Dithio-DL-Treitol, and 1 mM amino-ethyl-benzenesulfonyl fluoride hydrochloride (all from Sigma-Aldrich). […] Blot images were acquired using BioCaptMW (Thermo Fisher Scientific), and band densities were quantified using ImageJ software.

[4] = system: NRF-1; test: Western blot of NRF-1 in BSM cells; type: cell-based, human; conditions: asthmatic BSM cells; 1 μM D600 for 48 h
Experimental: as §1, with “In another set of experiments, we investigated the effects of 50 μg/liter ethidium bromide (Qbiogene) for up to 33 d, 1.3 g/liter cyclic cGMP (3 mM; Sigma-Aldrich) for up to 6 d, or 0.5 g/liter D600, i.e., methoxyverapamil or gallopamil (1 μM; Sigma-Aldrich) for up to 2 d in 10% FCS-DME containing 4.5 g/liter glucose.” left out
as §2

[5] = system: BSM cells; test: Microspectrofluorimetry of intracellular calcium (indo-1) after acetylcholine stimulation; type: cell-based, human; conditions: asthmatic BSM cells; 10^-5 M acetylcholine; 1 μM D600 with 2 mM Ca2+, or 400 μM EGTA without extracellular calcium
Experimental: Change in growth-arrested BSM cell intracellular calcium concentration ([Ca^2+]i), was assessed using the Ca^2+-sensitive probe indo-1, as previously described (Berger et al., J. Appl. Physiol. 91:995-1003 (2001); Trian et al., Am. J. Respir. Cell Mol. Biol. 34:49-55 (2006)). In brief, cells were loaded with indo-1 (Calbiochem) and mounted in a perfusion chamber continuously perfused with phosphate salt solution containing either 2 mM Ca2+ in the absence or presence of 1 μM D600, or 400 μM EGTA (Sigma-Aldrich) in the absence of extracellular calcium. BSM cells were stimulated with 10^−5 M acetylcholine or histamine (both from Sigma-Aldrich). Individual cell calcium levels were monitored continuously. Results were expressed as the mean±the SEM of resting or peak of [Ca^2+]i rises (in […]) and area under the curves (nanomoles/second). Experiments were carried out at room temperature (22-25° C.).

[6] = system: PGC-1α; test: Western blot of PGC-1α in BSM cells; type: cell-based, human; conditions: asthmatic BSM cells; 1 μM D600 for 48 h
Experimental: as §1, with “In another set of experiments, we investigated the effects of 50 μg/liter ethidium bromide (Qbiogene) for up to 33 d, 1.3 g/liter cyclic cGMP (3 mM; Sigma-Aldrich) for up to 6 d, or 0.5 g/liter D600, i.e., methoxyverapamil or gallopamil (1 μM; Sigma-Aldrich) for up to 2 d in 10% FCS-DME containing 4.5 g/liter glucose.” left out
as §2

[7] = system: mtTFA; test: Western blot of mtTFA in BSM cells; type: cell-based, human; conditions: asthmatic BSM cells; 1 μM D600 for 48 h
Experimental: as §1, with “In another set of experiments, we investigated the effects of 50 μg/liter ethidium bromide (Qbiogene) for up to 33 d, 1.3 g/liter cyclic cGMP (3 mM; Sigma-Aldrich) for up to 6 d, or 0.5 g/liter D600, i.e., methoxyverapamil or gallopamil (1 μM; Sigma-Aldrich) for up to 2 d in 10% FCS-DME containing 4.5 g/liter glucose.” left out
as §2

[8] = system: U937, L6, and PC12; conditions: various cell lines, including U937, L6, and PC12; cited from earlier work
[9] = system: endothelial cells; conditions: cited from earlier work
[10] = system: vascular smooth muscle cells; conditions: mesangial cells and various fibroblasts; cited from earlier work
[11] = system: BSM cells; test: BSM cell growth curves (cell counting), doubling time and proliferation; type: cell-based, human; conditions: for doubling time of cell growth: glucose medium + 50 μg/liter ethidium bromide or 3 mM cyclic GMP; for proliferation of BSM cells: glucose medium + ethidium bromide or cyclic GMP
Experimental: as §1

For “5-[2-(3,4-dimémethoxyphenyl)ethyl-methylamino]-2-propan-2-yl-2-(3,4,5-triméthoxyphenyl)pentanenitrile hydrochloride [D600]”, the “mitochondrial content (amount of porin)” value [1] was “blocks”, the BrdU incorporation ([2]; asthmatic BSM cells, 1 μM D600 48 h) was “significantly inhibited” and the “activation (phosphorylation) of CaMK-IV” value [3] was “inhibited”. For the same compound, the “activation of mitochondrial biogenesis through NRF-1” value [4] was “inhibited”, the “abnormal calcium response (area under the curve) to acetylcholine” value [5] was “abolished” and the “activation of mitochondrial biogenesis through PGC-α” value [6] was “inhibited”. The “activation of mitochondrial biogenesis through mtTFA” value [7] was “inhibited”.
In the case of O=C(O)CN(CCOCCOCCN(CC(=O)O)CC(=O)O)CC(=O)O [EGTA], the “abnormal calcium response (area under the curve) to acetylcholine” value [5] is reported as “abolished”.
With Nc1nc2c(ncn2[C@@H]2O[C@@H]3COP(=O)(O)O[C@H]3[C@H]2O)c(=O)[nH]1 [cyclic GMP] the “mitochondrial content (amount of porin)” value ([1]; COPD BSM cells, ethidium bromide or cyclic GMP 6 d) was “increased”, the “mitochondrial content (amount of porin)” value ([1]; asthmatic BSM cells, ethidium bromide or cyclic GMP 6 d, 1 μM D600 48 h) was “failed to additionally increase” and the “mitochondrial content (amount of porin)” value ([1]; control BSM cells, ethidium bromide or cyclic GMP 6 d) was “increased”. For the same compound, the BrdU incorporation ([2]; COPD BSM cells) was “increased”, the BrdU incorporation ([2]; control BSM cells) was “increased” and the “PGC-1α and mitochondrial biogenesis” value [8] was “activate”. For the same compound, the “proliferation of endothelial cells” value [9] was “increased”, the proliferation [10] was “inhibit” and the “doubling time of cell growth” value ([11]; COPD BSM cells) was “significantly decreased”. For the same compound, the “proliferation of BSM cells” value ([11]; COPD BSM cells) was “increased”, the “doubling time of cell growth” value ([11]; asthmatic BSM cells) was “had no effect” and the “proliferation of BSM cells” value ([11]; asthmatic BSM cells) was “had no effect”. For the same compound, the “doubling time of cell growth” value ([11]; control BSM cells) was “decreased” and the “proliferation of BSM cells” value ([11]; control BSM cells) was “increased”.
